The record followed here is patent US20210009630A1, “CYCLIC DINUCLEOTIDES AS STING AGONISTS” (Janssen Biotech, Inc., priority 2017, published 2021).

pEC50, pIC50, pKd: −log10 of the molar value. Like-named read-outs stand apart in the source and are kept apart here.

Assay [1] deals with human STING (biotinylated STING protein, residues 139-379 of Q86WV6, H232R) (Homo sapiens, UniProt Q86WV6, H232R). The assay is described as follows: STING SPA binding assay.
Protocol: The HIS tag is cleaved after purification and prior to biotinylation.
Test compounds (80 nL) were added with an acoustic dispenser (EDC Biosystems) in 100% DMSO for a final assay concentration of 1% DMSO. Plates were centrifuged for 1 min and incubated for 60 min at room temperature. […] Plates were dark adapted for 2 h and read on a ViewLux (Perkin Elmer) for 12 min per plate.
In assay [2] the test system is human STING pathway (THP1-ISG cells). In words: STING human cell reporter assay. The assay is classed as cell-based. To be noted: IRF-inducible SEAP reporter, 24 h, means of at least three values. Here is the method: Agonism of the human STING pathway is assessed in THP1-ISG cells (Invivogen, cat #thp-isg) derived from human THP1 monocyte cell line by stable integration of an interferon regulatory factor (IRF)-inducible SEAP reporter construct. THP1-Blue ISG cells express a secreted embryonic alkaline phosphatase (SEAP) reporter gene under the control of an ISG54 minimal promoter in conjunction with five interferon (IFN)-stimulated response elements. As a result, THP1-Blue ISG cells allow the monitoring of IRF activation by determining the activity of SEAP. The levels of IRF-induced SEAP in the cell culture supernatant are readily assessed with alkaline phosphatase detection medium, a SEAP detection reagent. These cells are resistant to Zeocin. 2′3′cGAMP was used as a positive control in this assay. To run the assay, 60,000 cells were dispensed in 30 μL/well of a white, opaque bottom tissue culture treated 384-well plate.
Test compounds were added in a volume of 10 μL (1% DMSO final concentration). Compounds are initially prepared in 100% DMSO, spotted on an compound dilution plate and then diluted in media prior to transfer. The assay was incubated for 24 h at 37° C., 5% CO2 then plates were centrifuged at 1200 rpm (120×g) for 5 min. After final incubation, 90 μL of alkaline phosphatase detection medium-substrate was added to each well of a new 384-well clear plate and 10 μL of the cell supernatant was transferred from the assay plate to the new alkaline phosphatase detection medium-plate using a Biomek FX and mixed 4 times. Plates were incubated at RT for 20 min then absorbance at 655 nm was determined on the Tecan Safire2.
Background: Reporter assays use an easily measured gene product as a stand-in for the process of interest.

Assay [3] deals with T1, human STING (E. coli produced truncated STING protein) (Homo sapiens, UniProt Q86WV6, H232R).
T1 construct: contains residues 139-379 of Q86WV6 with an R at position 232 (H232R); HIS tag (N, cleaved yes); made in house; host or cells: E. coli
In words: STING SPR binding assay. To be noted: steady state affinity, 1:1 binding model, 25° C. The method, then:
Compounds were analyzed on an S200 biacore SPR instrument (GE Healthcare). E. coli produced truncated STING protein was immobilized on a series S streptavidin chip via biotin capture (GE Healthcare #BR100531) with. […] Steady state affinity and kinetic evaluations were carried out using 1:1 binding model (STING was treated as a dimer). Run parameters were as follows: 60 sec on, 300 sec off for the IFM compounds, cyclic-di-GMP (60 sec on/60 sec off), thiol isomer 1 (60 sec on/300 sec off) and cGAMP (60 sec on/1200 sec off) with a flow rate of 50 μL/min and data collection at 40 Hz at 25° C.

The subject of assay [4] is THP1-Blue ISG cells (IFN-β secretion). In words: Human interferon-β induction assay. The assay is classed as cell-based. As to conditions: total cumulative IFN-β induction over the dose range tested (0.78 to 50 uM) in THP-1 cells after a 24 hour exposure. The method, then:
THP1-Blue ISG cells are used to measure the secretion of IFN-β into the culture supernatant following STING pathway activation. To run the assay, anti-IFN-β capture antibodies were coated on […] well MultiArray plates (Mesoscale Discovery). After a one hour incubation, plates were washed and 50 μL supernatant from the STING human cell reporter assay plates or IFN-β standards were mixed with 20 μL Sulfotag-conjugated detection antibody in the coated plates. Plates were incubated, shaking for 2 h, washed, and read buffer was applied. Electrochemiluminescence was measured on the SectorImager.

Setting [5] is: read-out: hSTING SPA IC50, displacement of [3H]-2′3′-cGAMP from biotin-STING, means of at least three values.

T1 sequence (Q86WV6 139-379 H232R): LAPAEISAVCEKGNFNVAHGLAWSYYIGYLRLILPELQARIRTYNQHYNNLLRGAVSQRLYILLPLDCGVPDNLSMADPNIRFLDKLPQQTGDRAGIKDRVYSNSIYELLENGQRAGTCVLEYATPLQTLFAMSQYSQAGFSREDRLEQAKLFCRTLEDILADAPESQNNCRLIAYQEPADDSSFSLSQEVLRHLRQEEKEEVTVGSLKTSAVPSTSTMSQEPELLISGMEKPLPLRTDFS
human STING (biotinylated STING protein, residues 139-379 of Q86WV6, H232R), sequence (Q86WV6 139-379 H232R, one chain of several): as the sequence (Q86WV6 139-379 H232R) above

For the compound `CO[C@H]1[C@H]2OS(=O)(=O)NC[C@H]3O[C@@H](n4cnc5c(N)ncnc54)C[C@@H]3OP(=O)(O)OC[C@H]1O[C@H]2n1cnc2c(=O)[nH]cnc21` [Compound 40], the pIC50 in assay [1] is 7.18. Further, the pEC50 in assay [2] (Homo sapiens) was 7.42.

In assay [1], `CO[C@H]1[C@H]2OP(=O)(O)OC[C@H]3OC(n4cnc5c(N)ncnc54)[C@H](F)[C@@H]3OS(=O)(=O)NC[C@H]1O[C@H]2n1cnc2c(=O)[nH]c(N)nc21` (stereo partly shown) [Compound 22] gave a pIC50 of 7.04. This compound also gave a pEC50 in assay [2] (Homo sapiens) of 7.59.

In assay [3], `Nc1nc2c(ncn2[C@@H]2O[C@@H]3COP(=O)(O)O[C@H]4[C@@H](F)[C@H](n5cnc6c(N)ncnc65)O[C@@H]4CNS(=O)(=O)O[C@@H]2[C@@H]3O)c(=O)[nH]1` [Compound 11] showed a pKd of 8.19. The compound also showed a pIC50 in assay [1] of 7.82. The same compound had a pEC50 in assay [2] (Homo sapiens) of 7.52. Also, in assay [4], the “human IFN-β (ranking value)” value amounted to 14896 pg/mL.

In the case of `CO[C@H]1[C@H]2OP(=O)(O)OC[C@H]3O[C@@H](n4cnc5c(N)ncnc54)C[C@@H]3NS(=O)(=O)OC[C@H]1O[C@H]2n1cnc2c(=O)[nH]c(N)nc21` [Compound 20], the pKd in assay [3] was 8.09. Further, in assay [1], the pIC50 was 7.33. In assay [2] (Homo sapiens), this compound had a pEC50 of approximately 6.66. In assay [4], the “human IFN-β (ranking value)” value is 6045 pg/mL.

Take `Nc1nc2c(nnn2[C@@H]2O[C@@H]3CNS(=O)(=O)O[C@H]4[C@@H](F)[C@H](n5cnc6c(N)ncnc65)O[C@@H]4COP(=O)(O)O[C@@H]2C3)c(=O)[nH]1` [Compound 37]: the negative logarithm of the IC50 (pIC50) in assay [1] was 4.91. Besides, the pEC50 in assay [2] (Homo sapiens) was 5.87.

`Nc1nc2c(ncn2[C@@H]2O[C@@H]3COP(=O)(O)O[C@H]4[C@@H](O)[C@H](n5cnc6c(N)ncnc65)O[C@@H]4COP(=O)(O)O[C@@H]2[C@@H]3O)c(=O)[nH]1` [c-GAMP, (2′,3′)cyclic guanosine monophosphate-adenosine monophosphate, reference compound]: the negative logarithm of the EC50 (pEC50) in assay [2] was 6.28.

`COC1C2COP(=O)(O)OC3C(CNS(=O)(=O)OC1C(n1nnc4c(=O)[nH]c(N)nc41)O2)OC(n1cnc2c(N)ncnc21)C3F` (stereo not shown) [Compound 51]: in assay [1], the pIC50 is 7.96.

The compound `Nc1ncnc2c1ncn2[C@@H]1O[C@@H]2COP(=O)(O)O[C@@H]3[C@H](F)[C@@H](CNS(=O)(=O)O[C@H]2[C@H]1F)O[C@H]3n1cnc2c(N)ncnc21` [Compound 35] gave a negative-log IC50 (pIC50) in assay [1] of less than 4.00. In assay [2] (Homo sapiens), this compound had a pEC50 of 5.15.

`CO[C@H]1[C@H]2OS(=O)(=O)NC[C@H]3O[C@@H](n4cnc5c(N)ncnc54)[C@@H](F)[C@@H]3O[P@](=O)(O)OC[C@H]1O[C@H]2n1cnc2c(=O)[nH]c(N)nc21` [Compound 28] had a pIC50 in assay [1] of 6.72. The compound also showed a pEC50 in assay [2] (Homo sapiens) of 7.00. In addition, the “human IFN-β (ranking value)” value in assay [4] is 12969 pg/mL.

As for `Nc1nc2c(nnn2[C@@H]2O[C@@H]3COP(=O)(O)O[C@H]4[C@@H](F)[C@H](n5cnc6c(N)ncnc65)O[C@@H]4CNS(=O)(=O)O[C@@H]2C3)c(=O)[nH]1` [Compound 15], the pIC50 in assay [1] was 6.44. The compound also showed a pEC50 in assay [2] (Homo sapiens) of 7.37. In addition, the “human IFN-β (ranking value)” value in assay [4] came to 15611 pg/mL.

With `Nc1nc2c(ncn2[C@@H]2O[C@@H]3COP(=O)(O)O[C@H]4[C@@H](O)[C@H](n5cnc6c(=O)[nH]c(N)nc65)O[C@@H]4COP(=O)(O)O[C@H]3[C@H]2O)c(=O)[nH]1` [3′,3′cGMP, reference compound], the negative logarithm of the Kd (pKd) in assay [3] was 5.40. In addition, in assay [1] (setting [5]), the pIC50 was 5.06. Also, in assay [2], the pEC50 was 5.06.

In assay [1], `Nc1ncnc2c1ncn2C1O[C@@H]2COP(=O)(O)O[C@@H]3[C@H](O)C(CNS(=O)(=O)O[C@H]2[C@H]1F)O[C@H]3n1cnc2c(N)ncnc21` (stereo partly shown) [Compound 41] had a pIC50 of less than 4.00. In assay [2] (Homo sapiens), this compound had a pEC50 of 4.65.

`Nc1nc2c(ncn2C2O[C@@H]3COP(=O)(O)O[C@H]4C[C@H](n5cnc6c(N)ncnc65)OC4CNS(=O)(=O)O[C@@H]2[C@@H]3O)c(=O)[nH]1` (stereo partly shown) [Compound 18]: in assay [1], the pIC50 was 5.94. Further, the pEC50 in assay [2] (Homo sapiens) is 6.96. In addition, in assay [4], the “human IFN-β (ranking value)” value worked out at 15249 pg/mL.

The compound `CO[C@H]1[C@H]2OS(=O)(=O)NC[C@H]3O[C@@H](n4cnc5c(N)ncnc54)C[C@@H]3OP(=O)(O)OC[C@H]1O[C@H]2n1cnc2c(=O)[nH]c(N)nc21` [Compound 12] showed a pIC50 in assay [1] of 6.66. In assay [2] (Homo sapiens), the pEC50 was 6.85.

In turn, `Nc1ncnc2c1ncn2[C@@H]1O[C@@H]2CNS(=O)(=O)O[C@@H]3[C@H](O)[C@@H](COP(=O)(O)O[C@H]2[C@H]1O)O[C@H]3n1cnc2c(N)ncnc21` [Compound 30] had a pIC50 in assay [1] of less than 4.00. In assay [2] (Homo sapiens), this compound gave a pEC50 of 4.88.

With `Nc1ncnc2c1ncn2C1O[C@@H]2CNS(=O)(=O)O[C@H]3C(n4cnc5c(N)ncnc54)O[C@H](COP(=O)(O)O[C@H]2[C@H]1F)[C@H]3O` (stereo partly shown) [Compound 17], the pKd in assay [3] is 5.29. The compound further showed a pIC50 in assay [1] of 4.67. In assay [2] (Homo sapiens), this compound had a negative-log EC50 (pEC50) of 6.60. The “human IFN-β (ranking value)” value in assay [4] was found to be 17298 pg/mL.

With `CO[C@H]1[C@H]2OS(=O)(=O)NC[C@H]3O[C@@H](n4cnc5c(N)ncnc54)[C@H](F)[C@@H]3OP(=O)(O)OC[C@H]1O[C@H]2n1cc(F)c2c(=O)n(C)cnc21` [Compound 55], the pIC50 in assay [1] is 6.66. For the same compound, in assay [4], the “human IFN-β (ranking value)” value turned out to be 25628 pg/mL.

`CO[C@H]1[C@H]2OS(=O)(=O)NC[C@H]3O[C@@H](n4cnc5c(N)ncnc54)[C@H](F)[C@@H]3OP(=O)(O)OC[C@H]1O[C@H]2n1cc(F)c2c(=O)[nH]cnc21` [Compound 54] had a pIC50 in assay [1] of 6.12. Also, the “human IFN-β (ranking value)” value in assay [4] amounted to 18578 pg/mL.

Regarding `Nc1nc2c(ncn2[C@@H]2O[C@@H]3CNS(=O)(=O)OC4[C@@H](F)[C@H](n5cnc6c(N)ncnc65)O[C@@H]4COP(=O)(O)O[C@@H]2[C@@H]3O)c(=O)[nH]1` (stereo partly shown) [Compound 47], in assay [1], the pIC50 is 5.89. This compound had a negative-log EC50 (pEC50) in assay [2] (Homo sapiens) of approximately 7.41.

For `Nc1ncnc2c1ncn2[C@@H]1O[C@@H]2COP(=O)(O)O[C@H]3[C@@H](O)[C@H](n4cnc5c(N)ncnc54)O[C@@H]3COP(=O)(O)O[C@H]2[C@H]1O` [3′,3′cAMP, reference compound], the pKd in assay [3] was 5.22. In addition, the pIC50 in assay [1] (setting [5]) is 4.14. The pEC50 in assay [2] was 4.75. For the same compound, in assay [4], the “human IFN-β (ranking value)” value amounted to 539 pg/mL.

On to `CO[C@H]1[C@H]2OP(=O)(O)OC[C@H]3OC(n4cnc5c(N)ncnc54)C[C@@H]3OS(=O)(=O)NC[C@H]1O[C@H]2n1cnc2c(=O)[nH]c(N)nc21` (stereo partly shown) [Compound 24], for which, in assay [1], the pIC50 was 5.30. The same compound had a pEC50 in assay [2] (Homo sapiens) of 7.96. Besides, in assay [4], the “human IFN-β (ranking value)” value stood at 11534 pg/mL.

In assay [1], `Nc1ncnc2c1ncn2[C@@H]1O[C@@H]2COP(=O)(O)O[C@H]3C[C@H](n4cnc5c(N)ncnc54)O[C@@H]3CNS(=O)(=O)O[C@@H]1[C@@H]2F` [Compound 36] showed a pIC50 of less than 4.00. The same compound gave a pEC50 in assay [2] (Homo sapiens) of 5.61.

In the case of `Nc1ncnc2c1ncn2[C@@H]1O[C@@H]2CNS(=O)(=O)O[C@@H]3[C@H](F)[C@@H](COP(=O)(O)O[C@H]2[C@H]1F)O[C@H]3n1cnc2c(=O)[nH]cnc21` [Compound 39], in assay [1], the pIC50 is 7.68. The pEC50 in assay [2] (Homo sapiens) was 7.19.

`Nc1nc2c(ncn2C2OC3CNS(=O)(=O)OC4C(COP(=O)(O)OC2C3)OC(n2cnc3c(N)ncnc32)C4F)c(=O)[nH]1` (stereo not shown) [Compound 26] had a pIC50 in assay [1] of 4.55. In assay [2] (Homo sapiens), this compound showed a pEC50 of 5.99.

For the compound `CO[C@H]1[C@H]2OP(=O)(O)OC[C@H]3O[C@@H](n4cnc5c(=O)[nH]cnc54)[C@H](F)[C@@H]3OS(=O)(=O)NC[C@H]1O[C@H]2n1cnc2c(=O)[nH]c(N)nc21` [Compound 53], the pIC50 in assay [1] is 5.40. For the same compound, the “human IFN-β (ranking value)” value in assay [4] came out at 11036 pg/mL.

Usually pIC50 stands for the negative decadic logarithm of the IC50, by convention in mol/L. Usually pEC50 stands for −log10 of the EC50, conventionally taken in molar units. As usually defined, the pKd is the Kd on a negative log10 scale, so that one unit is a factor of ten. A low value points to a large Kd.
